Reference: patent publication US20170095573A1, “METHODS AND COMPOSITIONS FOR TREATING ALLERGY AND INFLAMMATORY DISEASES” (Baylor Research Institute, priority 2014, published 2017)

Legend:
[1] = system: dendritic cells and CD4+ T cells; allergic patient PBMCs; experiment: Th2 responses after curdlan activation of DCs / allergic patient PBMCs; type: cell-based, human
[2] = system: naïve CD4+ T cells co-cultured with TSLP-activated mDCs; experiment: TSLP-activated mDC-induced CD4+ T cell responses (co-culture with naive CD4+ T cells, cytokine staining / supernatant); type: cell-based, human; conditions: 20 ug/ml, naïve CD4+ T cells 7 days, PMA/ionomycin 6 h, intracellular staining
Procedure: (FIG. 10A) Intracellular cytokine levels were analyzed by intracellular staining in cells stimulated with PMA/Ionomycin for 6 hours and with brefeldinA for 4 hrs. (FIG. 10B) Cell supernatant cytokine levels were measured by stimulating the cells with αCD3/CD28 beads for 48 hrs.
It was next tested whether anti-Dectin-1-Pam3 conjugate can indeed suppress TSLP-activated mDC-induced Th2 type T cell responses. 5×10^3 mDCs were cultured overnight with TSLP in the presence or absence of the same concentration (20 ug/ml) of anti-Dectin-1-Pam3 conjugate, combination of anti-Dectin-1 and Pam3, or Pam 3. 2×10^5 purified naïve CD4+ T cells were then added into the culture. After 7 days, T cells were stimulated for 6 h with PMA/ionomycin in the presence of brefeldin A. Cells were then stained for intracellular expression of IL-13 (Th2 type cytokine) and IFNγ (Th2 type cytokine).
Next, the Th2-type T cells were tested. mDCs were first primed with 40 ng/mL TSLP and either αdectin-1 or αDectin-1-pam3 at 20 ug/mL After 24 hrs, naïve CD4+ T cells are added to the mDCs and cultured for an additional 6 days. Intracellular cytokine levels were analyzed by intracellular staining in cells stimulated with PMA/Ionomycin for 6 hours and with brefeldinA for 4 hrs (FIG. 10A). Cell supernatant cytokine levels were measured by stimulating the cells with αCD3/CD28 beads for 48 hrs (FIG. 10B).

Compound	Antigen-specific TH2 responses ([1]; Flu HA1 antigen, DCs and CD4+ T cells, restimulation with HA-1-derived peptides)	Th2-type T cell responses ([1]; allergic patient PBMCs)	Percentage of IL-13+ cells ([1]; restimulation with PMA/Ionomycin, immunostaining)	Total TH2 responses ([1]; restimulation with PMA/Ionomycin, immunostaining for IL-13 and IL-5)	IL-13+CD4+ T cell responses [2]
curdlan	decreased antigen-specific TH2 responses	significantly down-regulated Th2-type T cell responses	decreased significantly	downregulates total TH2 responses	–
CCCCCCCCCCCCCCCC(=O)N[C@@H](CSCC(COC(=O)CCCCCCCCCCCCCCC)OC(=O)CCCCCCCCCCCCCCC)C(=O)N[C@@H](CO)C(=O)N[C@@H](CCCCN)C(=O)N[C@@H](CCCCN)C(=O)N[C@@H](CCCCN)C(=O)N[C@@H](CCCCN)C(=O)O (mixture of isomers) [Pam3, N-Palmitoyl-S-[2,3-bis(palmitoyloxy)-(2RS)-propyl]-[R]-cysteinyl-[S]-seryl-[S]-lysyl-[S]-lysyl-[S]-lysyl-[S]-lysine]	–	–	–	–	3.47%
